The text below walks through data of patent US20240408211A1, “COMPOSITIONS AND METHODS OF AMELIORATING AVERSIVENESS OF AVERSIVE STIMULI BY INHIBITION OF PURINERGIC RECEPTORS” (Monell Chemical Senses Center, priority 2021, published 2024).

SMILES strings stand for the structures. Read-outs that look alike come from different tables or passages of the source.

The test system of one data set is rats. The following applies: cited from earlier work.
The target of another data set is T1, P2X2/3 (Homo sapiens, UniProt P56373+Q9UBL9).
T1 construct: expressed in transfected cells; host or cells: HEK293
T1 sequence (Q9UBL9 1-471): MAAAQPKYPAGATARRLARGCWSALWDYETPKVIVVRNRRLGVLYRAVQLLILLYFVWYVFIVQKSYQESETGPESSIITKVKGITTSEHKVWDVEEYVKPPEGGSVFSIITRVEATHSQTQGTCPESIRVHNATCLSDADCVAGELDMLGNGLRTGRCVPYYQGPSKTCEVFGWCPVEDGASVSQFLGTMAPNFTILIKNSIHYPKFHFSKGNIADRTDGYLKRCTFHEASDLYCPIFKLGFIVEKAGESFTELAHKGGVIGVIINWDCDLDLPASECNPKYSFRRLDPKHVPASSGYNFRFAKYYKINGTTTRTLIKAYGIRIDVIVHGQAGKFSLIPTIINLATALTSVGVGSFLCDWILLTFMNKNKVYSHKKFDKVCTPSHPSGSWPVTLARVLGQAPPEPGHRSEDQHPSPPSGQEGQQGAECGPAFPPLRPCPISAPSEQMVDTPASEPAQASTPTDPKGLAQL
T1 sequence (P56373 1-397): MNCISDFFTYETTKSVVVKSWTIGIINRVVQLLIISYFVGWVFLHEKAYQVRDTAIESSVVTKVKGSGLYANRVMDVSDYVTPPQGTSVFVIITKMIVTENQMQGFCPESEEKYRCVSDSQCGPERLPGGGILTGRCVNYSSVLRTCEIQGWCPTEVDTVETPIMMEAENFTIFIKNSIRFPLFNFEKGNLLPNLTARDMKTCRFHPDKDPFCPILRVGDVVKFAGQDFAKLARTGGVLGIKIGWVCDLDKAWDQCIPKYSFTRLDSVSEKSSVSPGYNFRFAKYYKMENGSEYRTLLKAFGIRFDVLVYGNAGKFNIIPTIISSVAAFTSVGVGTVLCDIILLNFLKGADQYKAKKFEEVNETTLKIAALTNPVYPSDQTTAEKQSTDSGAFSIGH
Put plainly: P2X2/3 stable HEK293 cell lines responding to α,β-meATP (screening assay). The format is cell-based. The procedure: In this study, we built stable cell lines expressing P2X2/3 in HEK293 cells via transfection with either P2X2-Neo or P2X3-Zeo constructs, following which selection was performed using Zeocin, G418. Picked clones were grown out from single cells (cultured continuously in the presence of Zeocin and G418) using cloning rings.
The resulted stable cell lines are used for characterizing putative taste-blockers.

The conditions of data set [1]: in vivo; cited from earlier work.
For data set [2] the following is noted: clinical trial; cited from earlier work.
A further data set deals with patients. The following applies: cited from earlier work.

Procedure for humans: In some experiments, we used a regimen of two 1-minute rinses with 500 μM AF-353 composition (i.e., oral topical administration).
In this study, we tested an AF-353 composition in humans as an oral rinse after receiving IRB approval for its use. First, we tested rinsing 100 μM (0.04 mg/mL) orally for 2 minutes as 4×30 sec rinses with expectoration. We tested before and after sour, bitter, sweet, and salty solutions (quinine HCl, NaCl, Praziquantal, sucrose, CO2).
Next, we tested rinsing 500 μM (0.2 mg/mL) AF-353 for two minutes, in 2×1 min increment rinses with expectoration.

On to `CNC(=O)c1cc(F)c(-c2nc3cc(C)ccn3c2C[C@@H]2CCCN(C(=O)OC)C2)c(F)c1` [BLU-5937, Methyl (S)-3-((2-(2,6-difluoro-4-(methylcarbamoyl)phenyl)-7-methylimidazo[1,2-a]pyridin-3-yl)methyl)piperidine-1-carboxylate], for which the influence on taste result in the data set with rats (rat, 10-20 mg/kg intraperitoneally) is “did not influence taste”. Besides, in the data set with rats (rats, 10 or 20 mg/kg ip, 15-min test), the “behaviour towards 0.3 mM quinine hydrochloride in two-bottle choice” value was “avoided the quinine”.
For the compound `O=C(NCC12CC3CC(CC(C3)C1)C2)c1cc(CCCNCCCO)ccc1Cl` [AZD-9056], in the data set on humans (various concentration, negative control composition), the taste block result is recorded as “did not block taste”.
`Nc1ncnc2c1ncn2[C@@H]1O[C@H](COP(=O)(O)CP(=O)(O)OP(=O)(O)O)[C@@H](O)[C@H]1O` [α,β-meATP]: the half-maximal inhibitory concentration (IC50) (commonly the point on the concentration scale where inhibition reaches its midpoint) against P2X2/3 (P2X2/3 stable Line 2) turned out to be 2010 nM; at P2X2/3 (P2X2/3 stable Line 6) it was 2100 nM; against P2X2/3 (P2X2/3 stable Line 9), 3930 nM; against P2X2/3 (P2X2/3 stable Line 12), 1780 nM; against P2X2/3 (P2X2/3 stable Line 24) it was 2760 nM.
For the compound `Cc1cnc(-c2cc(O[C@@H]3CCOC3)cc(C(=O)N[C@H](C)c3cnc(C(F)(F)F)nc3)c2)s1` [eliapixant], the “effects on ratings of taste intensity measured using taste strips” value in data set [1] was “no concerted effects”. In addition, the “taste-related adverse events (primarily dysgeusia)” value in data set [2] is reported as “caused taste-related adverse events”.
Turning to `COc1cc(C(C)C)c(Oc2cnc(N)nc2N)cc1S(N)(=O)=O` [AF-219, 5-[(2,4-diaminopyrimidin-5-yl)oxy]-2-methoxy-4-(propan-2-yl)benzene-1-sulfonamide], the taste block result in the data set on humans (500 μM, preliminary test) is listed as “did not block taste”. The taste disturbances entry is reported as “taste disturbances in all patients tested” with patients (600 mg twice daily) and “also cause taste disturbances, albeit less severe” in the data set with patients (doses as low as 7.5-50 mg twice daily).
